Test system: Mtb PrcAB-OG
Experiment: biochemical
Assay type: biochemical, Mycobacterium tuberculosis

`CSc1sc(C)cc1-c1nsc(=O)o1` [GL5] gave a Selectivity of 63.8.

Reference: patent US20110118274A1, “PROTEASOME INHIBITORS AND THEIR USE IN TREATING PATHOGEN INFECTION AND CANCER” (CORNELL RESEARCH FOUNDATION, INC., priority 2007, published 2011)
